Cc1cccc(C(=O)O)c1[N+](=O)[O-]
solubility (mole fraction)
Conditions	in 1,4-dioxane	in NMP	in acetone	in acetonitrile	in ethanol	in ethyl acetate	in isopropanol	in methanol	in n-propanol
283.15 K	–	0.0128	0.0253	0.00464	0.0103	0.00907	0.00877	0.0097	0.00792
285.65 K	0.0281	0.0141	0.0265	0.00501	0.0111	0.00965	0.00946	0.0104	0.00845
288.15 K	0.0303	0.0154	0.0277	0.00543	0.012	0.0102	0.0102	0.0112	0.00895
290.65 K	0.0324	0.0168	0.0291	0.00588	0.013	0.0108	0.011	0.012	0.00955
293.15 K	0.0346	0.0184	0.0305	0.00633	0.014	0.0115	0.0118	0.0129	0.0102
295.65 K	0.0371	0.0201	0.0318	0.00684	0.0152	0.0121	0.0126	0.0138	0.0109
298.15 K	0.0396	0.0218	0.0333	0.00737	0.0165	0.0128	0.0136	0.0149	0.0116
300.65 K	0.0424	0.0234	0.0347	0.00788	0.0179	0.0136	0.0145	0.0159	0.0124
303.15 K	0.0452	0.0254	0.0364	0.00846	0.0193	0.0144	0.0153	0.0171	0.0133
305.65 K	0.0483	0.0273	0.0379	0.00915	0.0207	0.0151	0.0163	0.0183	0.0141
308.15 K	0.0512	0.0296	0.0396	0.00984	0.0223	0.016	0.0175	0.0196	0.0151
310.65 K	0.0543	0.032	0.0414	0.0106	0.0238	0.017	0.0186	0.0209	0.016
313.15 K	0.0577	0.0345	0.0432	0.0113	0.0257	0.018	0.0198	0.0223	0.0169
315.65 K	0.0609	0.0372	0.045	0.0121	0.0276	0.019	0.021	0.0237	0.0178
318.15 K	0.0646	0.0405	0.0466	0.0128	0.0296	0.02	0.0224	0.0252	0.0188

— BigSolDB 2.1
